Measurements published in patent US6890952B2, “Cyclic substituted aminomethyl compounds and medicaments comprising these compounds” (Gruenenthal GmbH, priority 2000, dated 2005).

Key:
[1] = system: phenylquinone-induced writhing reactions; experiment: phenylquinone-induced writhing test in mice; format: in vivo, mouse
Protocol: The antinociceptive activity of the compounds according to the invention was investigated in mice in the phenylquinone-induced writhing test, modified by I. C. Hendershot, J. Forsaith, J. Pharmacol. Exp. Ther. 125, 237-240 (1959). Male NMRI mice weighing 25-30 g were employed for this. Groups of 10 animals per substance dose received 0.3 ml/mouse of a 0.02% aqueous solution of phenylquinone (phenylbenzoquinone, Sigma, Deisenhofen; preparation of the solution with the addition of 5% ethanol and storage in a water bath at 45° C.) administered intraperitoneally 10 minutes after intravenous administration of a compound according to the invention. The animals were placed individually in observation cages. The number of pain-induced stretching movements (so-called writhing reactions=straightening of the body with stretching of the hind extremities) was counted by means of a push-button counter for 5-20 minutes after the administration of phenylquinone.
The ED50 values of the writhing reaction were calculated by means of regression analysis (evaluation program, Martens EDV Service, Eckental) from the dose-dependent decrease in writhing reactions compared with animal groups investigated in parallel to which no compound according to the invention was administered.
The majority of the substances were tested in the standard dose of 10 mg/kg. The percentage inhibition (% inhibition) of the writhing reactions by a substance was then calculated according to the following equation: [formula] The results are summarized in table 1 for selected compounds.

[2] = male NMRI mice, standard dose of 10 mg/kg

SMILES: CN(C)CC1=C(Cc2ccc(Cl)cc2)c2cccc(O)c2CC1.Cl [Example 4c, 5-(4-Chlorobenzyl)-6-dimethylaminomethyl-7,8-dihydro-naphth-1-ol hydrochloride]
- Writhing test, mouse, i.v. decrease in writhing reactions (% inhibition) [1, 2]: 84%
- melting point: 136 to 139 °C

SMILES: CN(C)CC1=C(Cc2ccc(Cl)cc2)c2ccc(O)cc2CC1.Cl
- melting point: 110 °C (dec.)

SMILES: CN(C)CC1CCOc2ccccc2/C1=C/c1cccc(O)c1.Cl (racemic) [Example 6b, E-(4RS)3-(4-Dimethylaminomethyl-3,4-dihydro-2H-benzo[b]oxepin-5-ylidene-methyl)-phenol hydrochloride]
- Writhing test, mouse, i.v. decrease in writhing reactions (% inhibition) ([1]; male NMRI mice, dose 21.5 mg/kg as printed in table 1): 91% [21.5 mg/kg]
- inhibition of writhing reactions ([1]; mouse, i.v., dose of 2.15 mg/kg body weight as printed in text): 91%

SMILES: CN(C)CC1CCCc2ccccc2/C1=C/c1ccc(Cl)cc1.Cl (racemic) [Example 4e, E-(5RS)-[5-(4-Chlorobenzylidene)-6,7,8,9-tetrahydro-5H-benzocyclohepten-6-ylmethyl]-dimethylamine hydrochloride]
- Writhing test, mouse, i.v. decrease in writhing reactions (% inhibition) [1, 2]: 69%

SMILES: CN(C)CC1=C(Cc2ccc(Cl)cc2Cl)c2ccccc2CC1.Cl
- melting point: 208 to 209 °C

SMILES: CN(C)CC1=C(Cc2ccc(Cl)cc2)c2ccccc2CC1.Cl [Example 2]
- Writhing test, mouse, i.v. ED50 ([1]; male NMRI mice, 10 minutes before phenylquinone i.p.): 6.85 mg/kg
- Writhing test, mouse, i.v. decrease in writhing reactions (% inhibition) [1, 2]: 61.5%

SMILES: CN(C)CC1=C(Cc2ccc(Cl)cc2)c2ccccc2CCC1.Cl
- melting point: 240 to 243 °C

SMILES: CN(C)CC1=C(Cc2cccc(O)c2)c2ccccc2CC1.Cl [Example 3, 3-(2-Dimethylaminomethyl-3,4-dihydro-naphth-1-ylmethyl)-phenol hydrochloride]
- Writhing test, mouse, i.v. decrease in writhing reactions (% inhibition) [1, 2]: 93%

SMILES: CN(C)CC1CCOc2ccccc2/C1=C\c1ccc(Cl)cc1.Cl (racemic) [Example 7c, Z-(4RS) [5-(4-Chlorobenzylidene)-2,3,4,5-tetrahydro-benzo[b]oxepin-4-yl-methyl]-dimethylamine hydrochloride]
- Writhing test, mouse, i.v. decrease in writhing reactions (% inhibition) [1, 2]: 79%

SMILES: CN(C)CC1CCOc2ccccc2/C1=C\c1cccc(O)c1.Cl (racemic) [Example 6c, Z-(4RS)3-(4-Dimethylaminomethyl-3,4-dihydro-2H-benzo[b]oxepin-5-ylidene-methyl)-phenol hydrochloride]
- Writhing test, mouse, i.v. decrease in writhing reactions (% inhibition) [1, 2]: 78%

SMILES: CN(C)CC1=C(Cc2cccc(O)c2)c2ccccc2OCC1.Cl [Example 6a, 3-(4-Dimethylaminomethyl-2,3-dihydro-benzo[b]oxepin-5-ylmethyl)-phenol hydrochloride]
- Writhing test, mouse, i.v. decrease in writhing reactions (% inhibition) [1, 2]: 95%
